{"source": "paper PMC6749524", "about": "“Identification of New Antifungal Agents Targeting Chitin Synthesis by a Chemical-Genetic Method” (Molecules, 2019)", "key": {"[1]": {"test_system": "C. albicans ATCC10231", "test": "Growth inhibition, broth microdilution MIC", "assay_type": "cell-based, Candida albicans", "protocol": "The experiments were carried out using a broth microdilution protocol modified from the Clinical and Laboratory Standards Institute M-27A methods. WT S. cerevisiae and C. albicans were grown to mid-log phase in YPD medium. The cells were collected by centrifugation at 1500 g for 5 min and diluted with RPMI 1640 medium to the density of 1 × 10^4 CFU/mL. Then, the samples with various concentrations of compounds were dispensed at 0.2 mL/well in sterile 96-well microplates. The final concentrations of compounds ranged from 3.125 to 100 μg/mL with serial two-fold dilution. After incubation at 30 °C (S. cerevisiae) or 35 °C (C. albicans) for 24 hours, the minimal inhibitory concentration (MIC) was determined by measuring the optical density of the wells with cell cultures. The antifungal agent caspofungin was used as a positive control. All tests were performed in triplicate."}, "[2]": {"test_system": "WT yeast cells (BY4741)", "test": "Growth curve assay (OD600 over time)", "assay_type": "cell-based, S. cerevisiae", "protocol": "(§1) Fresh cell cultures of WT yeast S. cerevisiae and Candida albicans ATCC10231 (OD600 = 0.8) were diluted in YPD medium (OD600 = 0.05). Then, IMB-D10 and IMB-F4 were added at concentrations ranging from 12.5 to 100 μg/mL. The cells were collected at different time points, and OD600 was measured with Multi-label Reader. Three experiments were performed independently, and the mean ± SD was calculated."}, "[3]": {"test_system": "C. albicans", "test": "Growth curve assay (OD600 over time)", "assay_type": "cell-based, Candida albicans", "details": "50 μg/mL and 100 μg/mL, p < 0.05", "protocol": "as §1"}, "[4]": {"test_system": "Mycobacterium smegmatis", "test": "Growth inhibition of bacteria", "assay_type": "cell-based", "details": "at 100 μg/mL"}, "[5]": {"test_system": "WT yeast cells", "test": "Cell division morphology, light microscopy", "assay_type": "cell-based, S. cerevisiae", "details": "treatment for 5 hours at 30 °C (IMB-D10 25 μg/mL)", "protocol": "WT S. cerevisiae and C. albicans ATCC10231 were grown to 10^5 CFU/mL in YPD medium and then treated with IMB-D10 (12.5 or 25 μg/mL), IMB-F4 (12.5 or 25 μg/mL), or 0.25% DMSO for 3 and 5 hours at 30 ℃. Cells were collected by centrifugation at 1500 g for 5 min and resuspended in PBS. Some cells were examined using 100 × / 1.25 oil immersion objective (DM2500, Leica) and analyzed by Leica las. Some cells were stained with 100 μg/mL Calcofluor White M2R (CFW, Sigma-Aldrich, St. Louis, MO, USA for 3 min and washed three times with water. Then, the cells were examined under the UV light for fluorescent signals."}, "[6]": {"test_system": "Chs1", "test": "Chitin synthase activity assay (WGA-coated plate)", "assay_type": "biochemical, S. cerevisiae", "details": "membrane protein from WT yeast", "protocol": "(§2) The inhibitory effect of compounds IMB-D10 and IMB-F4, on the activity of chitin synthases 1, 2, and 3, was measured by the procedure, described previously. In brief, WT yeast cells were grown in YPD medium to OD600 1–2. The cells were sedimented at 1500 g for 15 min at 4 °C and washed once with water. Then, the cells were resuspended in cold 100 mM Tris-HCl (pH 7.5) buffer containing protease inhibitors, and broken by 10 cycles of vortexing with acid-washed glass beads (1 min each). The broken cells were centrifuged for 15 min at 1500g to eliminate cell wall and debris. One volume of supernatant was placed on 2 volumes of 10% w/w sucrose in 100 mM Tris-HCl pH 7.5 and centrifuged at 55,000 g for 2 hours. The pellet was resuspended in 50 mM Tris-HCl pH 7 and used as membrane protein of Chs3. For Chs1 and Chs2, the membrane protein was pretreated with 80 μg/mL trypsin for 30 min at 30 °C.\n(§3) To assess the enzyme activity of Chs1, the assay mixture contained 15 μg membrane protein, 5 mM MgCl2, 32 mM Tris-maleate (pH6.5), 0.2% digitonin, 40 mM N-acetyl-glucosamine (GlcNAc), and 4 mM UDP-GlcNAc. For Chs2, the mixture contained 15 μg pretreated membrane protein, 1.6 mM CoCl2, 32 mM Tris-HCl (pH 8), 40 mM GlcNAc, and 4 mM UDP-GlcNAc. For Chs3, the mixture contained pretreated membrane protein 15 μg, 1.6 mM CoCl2, 5 mM NiCl2, 32 mM Tris-HCl (pH 8), 40 mM GlcNAc, and 4 mM UDP-GlcNAc. Different concentrations of IMB-D10 and IMB-F4 were added to the mixture, and the reaction without UDP-GlcNAc was used to measure background absorbance. The 96-well plate coated with 50 μg/mL wheat germ agglutinin (WGA) was washed three times with water, and the reaction mixture was added into the wells and incubated at 30 °C for 60 min. The reaction was stopped by 50 mM EDTA, and the plate was emptied and washed with a large volume of water, followed by the addition of 200 μL 0.5 μg/mL WGA-HRP and incubation for 5 min at room temperature. The plate was washed 5 times with running distilled water. Then, the Tetramethylbenzidine (TMB) reagent was added, and the optical density at 600 nm (OD600) was immediately detected with Multilabel Reader (Envision, PE, Pontyclun, UK). All reactions were performed in triplicate."}, "[7]": {"target": "T1, Chs3 (Saccharomyces cerevisiae, UniProt P29465)", "T1 construct": "The pellet was resuspended in 50 mM Tris-HCl pH 7 and used as membrane protein of Chs3; endogenous in cells; host or cells: S. cerevisiae WT BY4741, crude membrane fraction", "T1 sequence (P29465 whole entry)": "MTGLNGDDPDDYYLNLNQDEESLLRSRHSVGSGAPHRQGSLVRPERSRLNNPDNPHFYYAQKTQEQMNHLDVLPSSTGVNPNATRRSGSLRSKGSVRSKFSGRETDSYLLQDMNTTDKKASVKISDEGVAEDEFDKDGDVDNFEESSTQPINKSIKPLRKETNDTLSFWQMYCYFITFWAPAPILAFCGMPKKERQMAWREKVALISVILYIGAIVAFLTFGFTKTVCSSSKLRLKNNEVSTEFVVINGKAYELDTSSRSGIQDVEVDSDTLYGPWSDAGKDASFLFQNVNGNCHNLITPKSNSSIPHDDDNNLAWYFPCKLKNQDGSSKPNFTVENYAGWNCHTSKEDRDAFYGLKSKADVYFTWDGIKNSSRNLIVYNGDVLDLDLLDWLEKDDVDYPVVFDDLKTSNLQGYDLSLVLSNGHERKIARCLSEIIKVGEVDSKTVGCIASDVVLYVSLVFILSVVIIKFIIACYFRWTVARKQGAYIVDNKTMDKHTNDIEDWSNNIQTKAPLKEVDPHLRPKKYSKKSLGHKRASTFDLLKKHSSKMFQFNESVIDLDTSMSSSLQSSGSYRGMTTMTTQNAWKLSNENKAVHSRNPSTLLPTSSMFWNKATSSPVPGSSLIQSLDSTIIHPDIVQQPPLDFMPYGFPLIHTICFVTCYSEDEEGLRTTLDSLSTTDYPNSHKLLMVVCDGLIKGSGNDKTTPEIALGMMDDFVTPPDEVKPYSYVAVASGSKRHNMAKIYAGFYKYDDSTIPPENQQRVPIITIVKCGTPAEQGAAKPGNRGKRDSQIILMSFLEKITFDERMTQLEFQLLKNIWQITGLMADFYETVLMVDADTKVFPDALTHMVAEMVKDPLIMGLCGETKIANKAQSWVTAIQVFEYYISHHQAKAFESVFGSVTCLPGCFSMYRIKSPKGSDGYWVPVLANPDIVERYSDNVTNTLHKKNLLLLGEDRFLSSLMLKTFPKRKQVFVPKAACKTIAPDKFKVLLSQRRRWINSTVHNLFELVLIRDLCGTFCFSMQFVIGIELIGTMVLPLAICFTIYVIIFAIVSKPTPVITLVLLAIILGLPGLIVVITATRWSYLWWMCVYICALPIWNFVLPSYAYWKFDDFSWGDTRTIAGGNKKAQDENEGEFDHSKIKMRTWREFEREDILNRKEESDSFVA", "test": "Chitin synthase activity assay (WGA-coated plate)", "assay_type": "biochemical, S. cerevisiae", "protocol": "as §2, §3"}}, "note": "Where two headings read alike, the source gives them in different places.", "data": [{"compound": "COc1cc(OC)cc(C(=O)N(CCn2ccnc2)c2nc3ccc(OC)cc3s2)c1", "note": "[IMB-F4, N-(2-(1H-imidazol-1-yl)ethyl)-3,5-dimethoxy-N-(6-methoxybenzo[d]thiazol-2-yl)benzamide]", "values": [{"measurement": "MIC", "setting": "[1]; Candida albicans, read-out: MIC", "result": "> 100", "unit": "µg/mL"}, {"measurement": "growth of yeast cells over time (OD)", "setting": "[2]", "result": "dose-dependent slow growth"}, {"measurement": "growth of C. albicans over time", "setting": "[3]", "result": "growth inhibition was observed after incubation for 6 hours"}, {"measurement": "growth inhibition", "setting": "[4]", "result": "did not inhibit the growth"}, {"measurement": "cell division / cell separation morphology", "setting": "[5]", "result": "normal cell separation"}, {"measurement": "inhibition of Chs1 activity", "setting": "[6]", "result": "only inhibited the activity of Chs2 and Chs3"}, {"measurement": "IC50", "setting": "[7]", "result": 6.76, "unit": "µM"}]}, {"compound": "N-(2-(diethylamino) ethyl)-N-(7-hydroxy-4-methoxybenzo[d]thiazol -2-yl)-2-oxo-2H-chromene-3-carboxamide [IMB-D10]", "values": [{"measurement": "MIC", "setting": "[1]", "result": 100, "unit": "µg/mL"}, {"measurement": "growth of yeast cells over time (OD)", "setting": "[2]", "result": "dose-dependent slow growth"}, {"measurement": "growth of C. albicans over time", "setting": "[3]", "result": "reduced after 4 hours incubation"}, {"measurement": "growth inhibition", "setting": "[4]", "result": "did not inhibit the growth"}, {"measurement": "cell division / cell separation morphology", "setting": "[5]", "result": "some yeast cells failed to divide"}, {"measurement": "IC50 Chs1", "setting": "[6]", "result": "17.46 ± 3.39", "unit": "µg/mL"}, {"measurement": "IC50 Chs3", "setting": "[7]; membrane protein from WT yeast", "result": "13.08 ± 2.08", "unit": "µg/mL"}]}]}
